Measured values published in patent US20210330611A1, “THERAPY FOR NEUROLOGICAL DISEASES/DISORDERS” (priority 2020, published 2021).
Counter-ions that a name gives are not always drawn. Like-named read-outs stand apart in the source and are kept apart here.

What was measured:
[1] = tested on: primary rat microglia; assay: Cell toxicity (dead cells, size <150 μm2) in LPS assay
[2] = tested on: LPS-induced microglia activation; assay: Image-based assay of LPS-induced microglia activation (HTS and dose response); assay type: cell-based, rat; conditions: for inhibition at 10 µM: Rattus norvegicus, Microglia, read-out: LPS % inhibition
[3] = tested on: primary rat microglia; assay: Cell toxicity (dead cells, size <150 μm2) in coated fibrin (cFib) assay;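 note: share of dead cells sized under 150 µm2 at 10 µM in fibrin-stimulated microglia HTS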
[4] = tested on: fibrin-induced microglia activation; assay: Image-based assay of fibrin-induced microglia activation (HTS and dose response); assay type: cell-based, rat; conditions: for inhibition at 10 µM: Rattus norvegicus, Microglia, read-out: Fibrin % inhibition
[5] = tested on: fibrin- and LPS-induced microglia activation; assay: cells; assay type: cell-based, rat
[6] = primary microglia HTS, LPS stimulation, decreased size (<150 μm^2) as marker of toxicity
[7] = primary microglia HTS, fibrin stimulation, decreased size (<150 μm^2) as marker of toxicity
[8] = primary microglia HTS, fibrin stimulation, increased cell size (>800 μm^2) as marker of activation
[9] = quadrant by fibrin and LPS inhibition in HTS of 1907 compounds
[10] = primary microglia HTS, 10 μM, LPS assay, cell size <150 μm^2 as marker of toxicity
[11] = primary microglia HTS, 10 μM, LPS-stimulated, cell size >800 μm^2 as marker of activation
[12] = primary microglia HTS, 10 μM, fibrin assay, cell size <150 μm^2 as marker of toxicity
[13] = primary microglia HTS, 10 μM, fibrin-stimulated, cell size >800 μm^2 as marker of activation
[14] = HTS of 1907 compounds, quadrant by fibrin and LPS inhibition
[15] = primary HTS, 10 μM, LPS assay, dead cells size <150 μm2
[16] = primary HTS, 10 μM, LPS-stimulated primary microglia
[17] = primary HTS, 10 μM, fibrin assay, dead cells size <150 μm2
[18] = primary HTS, 10 μM, fibrin-stimulated primary microglia
[19] = primary microglia HTS, LPS stimulation, toxicity = cell size <150 μm2
[20] = 48 h, primary microglia HTS, LPS stimulation, activation = cell size >800 μm2
[21] = primary microglia HTS, fibrin stimulation, toxicity = cell size <150 μm2
[22] = primary microglia HTS, fibrin stimulation, activation = cell size >800 μm2
[23] = 48 h, primary microglia HTS, LPS stimulation, increased cell size (>800 μm^2) as marker of activation

Row | Structure (SMILES) | Quadrant (FIG. 5b) [5, 9] | LPS % cell toxicity [1, 15] [%] | inhibition at 10 µM [2, 16] [%] | Fibrin % cell toxicity [3, 17] [%] | inhibition at 10 µM [4, 18] [%] | Quadrant (FIG. 5b) ([5]; primary HTS, 10 μM) | also measured
1 | COc1ccnc(C[S+]([O-])c2nc3cc(OC(F)F)ccc3[n-]2)c1OC.[Na+] (stereo not shown) [Pantoprazole, Pantoprazole Sodium Salt] | Q4 |  |  |  |  |  | LPS % cell toxicity [1, 6]: 0%; LPS % inhibition ([2]; primary microglia HTS, LPS stimulation, increased cell size (>800 μm^2) as marker of activation): −1%; Fibrin % cell toxicity [3, 7]: 0%; Fibrin % inhibition [4, 8]: −8%
2 | CC(C)[C@H](N)C(=O)OCC(CO)OCn1cnc2c(=O)nc(N)[nH]c21 (stereo partly shown) [Valganciclovir] |  |  |  |  |  |  | LPS % cell toxicity [1, 10]: 1%; inhibition at 10 µM [2, 11]: 14%; Fibrin % cell toxicity [3, 12]: 0%; inhibition at 10 µM [4, 13]: -12%; Quadrant (FIG. 5b) [5, 14]: Q4
3 | O=C(O)c1cc(=O)c2ccccc2o1 [Chromocarb] |  | 0 | 5 | 1 | -7 | Q4 | 
4 | CCCCOc1cc(C(=O)NCCN(CC)CC)c2ccccc2n1 [Cinchocaine] |  | 0 | 7 | 0 | -57 | Q4 | 
5 | O=C(O)CCC(=O)Nc1ccc(S(=O)(=O)Nc2nccs2)cc1 [Succinylsulfathiazole] |  |  |  |  |  |  | LPS % cell toxicity [1, 10]: 1%; inhibition at 10 µM [2, 11]: 16%; Fibrin % cell toxicity [3, 12]: 1%; inhibition at 10 µM [4, 13]: 15%; Quadrant (FIG. 5b) [5, 14]: Q4
6 | CC(C)CC(N)=O [Isovaleramide] | Q4 |  |  |  |  |  | LPS % cell toxicity [1, 19]: 0%; inhibition at 10 µM [2, 20]: 1%; Fibrin % cell toxicity [3, 21]: 1%; inhibition at 10 µM [4, 22]: -10%
7 | OC[C@@H](O)[C@@H](O)[C@H](O)[C@H](O)CO [Mannitol] | Q4 |  |  |  |  |  | LPS % cell toxicity [1, 6]: 0%; inhibition at 10 µM [2, 23]: 0%; Fibrin % cell toxicity [3, 7]: 1%; inhibition at 10 µM [4, 8]: 5%
8 | Cc1cc(C2CCCCC2)n(O)c(=O)c1 [Ciclopirox] |  | 1 | 40 | 1 | -1 | Q4 | 
9 | CC(COc1ccccc1)NC(C)C(O)c1ccc(O)cc1 (stereo not shown) [Isoxsuprine Hydrochloride] | Q4 |  |  |  |  |  | LPS % cell toxicity [1, 19]: 0%; inhibition at 10 µM [2, 20]: 23%; Fibrin % cell toxicity [3, 21]: 0%; inhibition at 10 µM [4, 22]: -13%
10 | Cc1cc2c(cc1S(N)(=O)=O)S(=O)(=O)CCC2 [Meticrane] | Q4 |  |  |  |  |  | LPS % cell toxicity [1, 6]: 0%; inhibition at 10 µM [2, 23]: 9%; Fibrin % cell toxicity [3, 7]: 0%; inhibition at 10 µM [4, 8]: -33%
11 | Cc1cc(O)c(C(=O)N[C@@H](C(=O)N[C@@H]2C(=O)N3C(C(=O)O)=C(CSc4nnnn4C)CS[C@H]23)c2ccc(O)cc2)cn1 [Cefpiramide] |  | 0 | 20 | 1 | 12 | Q4 | 
12 | CCCNC(C)(C)COC(=O)c1ccccc1 [Meprylcaine Hydrochloride] | Q4 |  |  |  |  |  | LPS % cell toxicity [1, 6]: 0%; inhibition at 10 µM [2, 23]: 7%; Fibrin % cell toxicity [3, 7]: 0%; inhibition at 10 µM [4, 8]: -10%
13 | O=P(O)(O)C(Cl)(Cl)P(=O)(O)O [Clodronate] |  | 0 | 1 | 1 | -15 | Q4 | 
14 | O=C1C2CC3CC1CC(O)(C3)C2 [Idramantone] | Q4 |  |  |  |  |  | LPS % cell toxicity [1, 19]: 0%; inhibition at 10 µM [2, 20]: 8%; Fibrin % cell toxicity [3, 21]: 1%; inhibition at 10 µM [4, 22]: -7%
15 | CNCCc1ccccn1 [Betahistine] |  | 0 | 13 | 1 | -29 | Q4 | 
16 | Cc1ccc2c(Br)cc(Br)c(OC(=O)c3ccccc3)c2n1 [Broxaldine] |  | 0 | 6 | 1 | 19 | Q4 | 
17 | COc1ccc(C(=O)c2ccccc2)c(O)c1 [Oxybenzone] | Q4 |  |  |  |  |  | LPS % cell toxicity [1, 6]: 0%; inhibition at 10 µM [2, 23]: 12%; Fibrin % cell toxicity [3, 7]: 0%; inhibition at 10 µM [4, 8]: -15%
